Read-outs that look alike come from different tables or passages of the source. Bridge positions count the residues as written; N and C are the ends. Square brackets hold non-standard residues; d marks the D form. Peptide text beside a SMILES is read from it. d2Nal = N[C@H](Cc1ccc2ccccc2c1)C(=O)O; Bta = N[C@@H](Cc1csc2ccccc12)C(=O)O; Pen = CC(C)(S)[C@H](N)C(=O)O; Nle = CCCC[C@H](N)C(=O)O; GABA = NCCCC(=O)O
Assays:
hMC5-R [1] = biological target: T1, hMC5-R (Homo sapiens, UniProt P33032); experiment: cyclic AMP bioassay (ECL) in CHO-K1 cells; assay type: cell-based
T1 construct: expressed in transfected cells; host or cells: CHO-K1
T1 sequence (P33032 whole entry): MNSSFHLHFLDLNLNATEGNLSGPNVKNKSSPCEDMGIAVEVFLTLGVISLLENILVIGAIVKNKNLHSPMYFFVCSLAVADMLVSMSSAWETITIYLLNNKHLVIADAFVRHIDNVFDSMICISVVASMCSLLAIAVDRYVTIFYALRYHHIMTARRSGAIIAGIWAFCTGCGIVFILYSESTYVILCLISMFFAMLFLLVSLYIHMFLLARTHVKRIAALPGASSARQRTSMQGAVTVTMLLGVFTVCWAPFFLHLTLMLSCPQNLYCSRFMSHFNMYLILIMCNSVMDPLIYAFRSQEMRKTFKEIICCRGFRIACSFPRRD

hMC1-R [2] = biological target: T2, hMC1-R (Homo sapiens, UniProt Q01726); experiment: Radioligand binding assay, [125I]-NDP-α-MSH competition, CHO-K1 membranes
T2 construct: expressed in transfected cells; host or cells: CHO-K1
T2 sequence (Q01726 whole entry): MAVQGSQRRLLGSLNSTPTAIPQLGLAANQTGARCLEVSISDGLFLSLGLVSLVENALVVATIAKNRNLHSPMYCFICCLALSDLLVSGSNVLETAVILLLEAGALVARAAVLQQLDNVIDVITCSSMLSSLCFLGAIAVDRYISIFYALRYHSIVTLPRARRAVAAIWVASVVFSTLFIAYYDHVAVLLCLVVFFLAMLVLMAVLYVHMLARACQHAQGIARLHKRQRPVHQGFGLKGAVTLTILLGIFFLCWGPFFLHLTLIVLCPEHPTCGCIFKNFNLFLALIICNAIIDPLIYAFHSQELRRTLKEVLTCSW
Experimental: (§1) Cellular membranes used for the in vitro receptor binding assays were obtained from transgenic CHO-K1 cells stably expressing hMC-R receptor subtypes 1, 3, 4 or 5. […] The pellets were resuspended in the same buffer and centrifuged at 50,000 g for 10 minutes at approximately 4° C. The washed pellets containing the cellular membranes were stored at approximately −80° C.
(§2) Cell membranes (1-10 μg protein/well) prepared as described above were incubated in 50 mM Tris-HCl at pH 7.4 containing 0.2% bovine serum albumin (BSA), 5 mM MgCl2, 1 mM CaCl2 and 0.1 mg/mL bacitracin, with increasing concentrations of the test compound and 0.1-0.3 nM [^25I]-NDP-α-MSH for approximately 90-120 minutes at approximately 37° C. […] Filters were washed three times with 50 mM Tris-HCl at pH 7.4 at a temperature of approximately 0-4° C. and then assayed for radioactivity using a Packard Topcount® scintillation counter. Binding data were analyzed by computer-assisted non-linear regression analysis (XL fit; IDBS).

hMC4-R = biological target: T3, hMC4-R (Homo sapiens, UniProt P32245); experiment: cyclic AMP bioassay (ECL) in CHO-K1 cells; assay type: cell-based
T3 construct: expressed in transfected cells; host or cells: CHO-K1
T3 sequence (P32245 whole entry): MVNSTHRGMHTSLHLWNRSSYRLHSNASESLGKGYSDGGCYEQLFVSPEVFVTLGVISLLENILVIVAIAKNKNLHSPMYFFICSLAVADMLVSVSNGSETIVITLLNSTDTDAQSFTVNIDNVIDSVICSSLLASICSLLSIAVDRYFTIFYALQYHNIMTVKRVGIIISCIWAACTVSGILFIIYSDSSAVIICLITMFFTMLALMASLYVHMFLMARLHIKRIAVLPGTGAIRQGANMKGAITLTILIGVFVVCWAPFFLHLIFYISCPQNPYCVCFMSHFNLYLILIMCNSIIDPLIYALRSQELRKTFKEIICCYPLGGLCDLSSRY

hMC1-R [3] = biological target: T2, hMC1-R; experiment: cyclic AMP bioassay (ECL) in CHO-K1 cells; assay type: cell-based
Experimental: Intracellular cyclic AMP (cAMP) levels were determined by an electrochemiluminescence (ECL) assay (Meso Scale Discovery®, Gaithersburg, Md.; referred to hereinafter as MSD). […] Transgenic CHO-K1 cells stably expressing hMC receptor subtypes 1, 3, 4 or 5 were dispensed at a density of approximately 7,000 cells/well in 384-well Multi-Array®plates (MSD) containing integrated carbon electrodes and coated with anti-cAMP antibody. Increasing concentrations of the test compounds were added and the cells were incubated for approximately 40 minutes at approximately 37° C. […] At the end of the second incubation period read buffer (Tris-buffered solution containing an ECL co-reactant and Triton X-100 at ph 7.8) was added and the cAMP levels in the cell lysates were immediately determined by ECL detection with a Sector Imager 6000 Reader® (MSD). Data were analyzed using a computer-assisted non-linear regression analysis (XL fit; IDBS) and reported as either an EC50 value or a Kb value.
The Kb value reflects the potency of an antagonist and is determined by Schild analysis. In brief, concentration-response curves of an agonist are carried out in the presence of increasing concentrations of an antagonist. […] It is calculated by extrapolating the line on a Schild plot to zero on the y-axis.

hMC3-R [4] = biological target: T4, hMC3-R (Homo sapiens, UniProt P41968); experiment: cyclic AMP bioassay (ECL) in CHO-K1 cells; assay type: cell-based
T4 construct: expressed in transfected cells; host or cells: CHO-K1
T4 sequence (P41968 whole entry): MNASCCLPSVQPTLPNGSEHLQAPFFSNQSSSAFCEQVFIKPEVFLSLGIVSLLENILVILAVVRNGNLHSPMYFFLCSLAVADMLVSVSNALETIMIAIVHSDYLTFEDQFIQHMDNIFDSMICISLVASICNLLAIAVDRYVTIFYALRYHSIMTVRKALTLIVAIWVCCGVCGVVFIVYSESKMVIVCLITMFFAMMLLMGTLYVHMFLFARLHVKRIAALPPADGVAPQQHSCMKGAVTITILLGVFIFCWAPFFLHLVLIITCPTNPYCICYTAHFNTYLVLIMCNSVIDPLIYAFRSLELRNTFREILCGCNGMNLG

hMC5-R [5] = biological target: T1, hMC5-R; experiment: Radioligand binding assay, [125I]-NDP-α-MSH competition, CHO-K1 membranes; details: Table 5; read-out: Ki hMC5-R
Experimental: as §1, §2

hMC3-R [6] = biological target: T4, hMC3-R; experiment: as above
Experimental: as §1, §2

[7] = Table 9A/9B, read-out: EC50 hMC5-R
[8] = Table 9A/9B, read-out: EC50 hMC4-R
[9] = Table 9A/9B, read-out: EC50 hMC1-R
[10] = Table 9A/9B, read-out: EC50 hMC3-R

CCCC[C@H](N)C(=O)N[C@H]1CSSC[C@@H](C(N)=O)NC(=O)CCCNC(=O)[C@H](Cc2c[nH]c3ccccc23)NC(=O)[C@H](CCCNC(=N)N)NC(=O)[C@@H](Cc2ccccc2)NC(=O)[C@H](Cc2c[nH]cn2)NC1=O [Nle-c(Cys-His-D-Phe-Arg-Trp-Gaba-Cys)-NH2] (H-[Nle]CH[dF]RW[GABA]C-NH2; disulfide 2-8)
EC50 (hMC5-R [1]; [7]): 1.7 nM | Ki (hMC1-R [2]; Table 5, read-out: Ki hMC1-R): 0.05 nM | EC50 (hMC4-R; [8]): 0.021 nM | EC50 (hMC1-R [3]; [9]): 0.37 nM | EC50 (hMC3-R [4]; [10]): 0.1 nM

CCCC[C@H](NC(C)=O)C(=O)N[C@H]1CSSC[C@@H](C(N)=O)NC(=O)[C@H](Cc2c[nH]c3ccccc23)NC(=O)[C@H](CCCNC(=N)N)NC(=O)[C@@H](Cc2ccccc2)NC(=O)[C@H](Cc2c[nH]cn2)NC(=O)[C@@H](C(C)(C)C)NC1=O [Ac-Nle-c(Cys-D-Tle-His-D-Phe-Arg-Trp-Cys)-NH2]
Ki (hMC5-R [5]): 40 nM | Ki (hMC1-R [2]; Table 5, read-out: Ki hMC1-R): 12 nM

CCCC[C@H](NC(C)=O)C(=O)N[C@H]1CSSC[C@@H](C(N)=O)NC(=O)CCNC(=O)[C@@H](Cc2c[nH]c3ccccc23)NC(=O)[C@H](CCCNC(=N)N)NC(=O)[C@@H](Cc2ccccc2)NC(=O)[C@H](Cc2c[nH]cn2)NC1=O [Ac-Nle-c(Cys-His-D-Phe-Arg-D-Trp-β-Ala-Cys)-NH2]
Ki (hMC1-R [2]; Table 5, read-out: Ki hMC1-R): 0.323 nM

CCCC[C@H](NC(C)=O)C(=O)N[C@H]1CSSC[C@@H](C(N)=O)NC(=O)[C@H](Cc2csc3ccccc23)NC(=O)[C@H](CCCNC(=N)N)NC(=O)[C@@H](Cc2ccc3ccccc3c2)NC(=O)[C@H](Cc2c[nH]cn2)NC(=O)[C@@H](C)NC1=O [Ac-Nle-c(Cys-D-Ala-His-D-2-Nal-Arg-Bal-Cys)-NH2] (Ac-[Nle]C[dA]H[d2Nal]R[Bta]C-NH2; disulfide 2-8)
Ki (hMC5-R [5]): 125 nM | Ki (hMC1-R [2]; Table 5, read-out: Ki hMC1-R): 22.2 nM | Ki (hMC3-R [6]; Table 5, read-out: Ki hMC3-R): 12.7 nM

CCCC[C@@H]1NC(=O)N(CC(=O)N[C@H]2CSSC[C@@H](C(N)=O)NC(=O)[C@H](Cc3c[nH]c4ccccc34)NC(=O)[C@H](CCCNC(=N)N)NC(=O)[C@@H](Cc3ccccc3)NC(=O)[C@H](Cc3cnc[nH]3)NC(=O)[C@H](CCC(=O)O)NC2=O)C1=O [Hydantoin(C(O)-(Nle-Gly))-c(Cys-Glu-His-D-Phe-Arg-Trp-Cys)-NH2]
Ki (hMC1-R [2]; Table 7, read-out: Ki hMC1): 14.3 nM | EC50 (hMC4-R; Table 11, read-out: EC50 hMC4): 0.177 nM | EC50 (hMC1-R [3]; Table 11, read-out: EC50 hMC1): 54.3 nM | EC50 (hMC3-R [4]; Table 11, read-out: EC50 hMC3): 12.2 nM

CC(=O)N[C@@H](CCCNC(=N)N)C(=O)N[C@H]1CSSC(C)(C)[C@@H](C(N)=O)NC(=O)CCCNC(=O)[C@H](Cc2c[nH]c3ccccc23)NC(=O)[C@H](CCCNC(=N)N)NC(=O)[C@@H](Cc2ccccc2)NC(=O)[C@H](Cc2c[nH]cn2)NC1=O [Ac-Arg-c(Cys-His-D-Phe-Arg-Trp-Gaba-Pen)-NH2] (Ac-RCH[dF]RW[GABA][Pen]-NH2; disulfide 2-8 (inferred))
EC50 (hMC5-R [1]; [7]): 23.2 nM | Ki (hMC1-R [2]; Table 5, read-out: Ki hMC1-R): 1.81 nM | EC50 (hMC4-R; [8]): 0.719 nM | EC50 (hMC1-R [3]; [9]): 4.23 nM | EC50 (hMC3-R [4]; [10]): 8.09 nM

CC(=O)N[C@H]1CSSC[C@@H](C(=O)N2CCC[C@H]2C(=O)N2CCC[C@H]2C(=O)N[C@@H](CCCCN)C(=O)N[C@@H](CC(=O)O)C(=O)NCCC(=O)N[C@@H](Cc2ccc(O)cc2)C(=O)NCC(=O)N[C@@H](CCCNC(=N)N)C(=O)N[C@@H](CCCCN)C(=O)N[C@@H](CCCNC(=N)N)C(=O)N[C@@H](CCCNC(=N)N)C(=O)N[C@@H](CCCNC(=N)N)C(=O)N[C@@H](CCC(N)=O)C(=O)N[C@@H](CCCNC(=N)N)C(=O)N[C@@H](CCCNC(=N)N)C(=O)N[C@@H](CCCNC(=N)N)C(N)=O)NC(=O)[C@H](C)NC(=O)[C@H](Cc2csc3ccccc23)NC(=O)[C@H](CCCNC(=N)N)NC(=O)[C@@H](Cc2ccc3ccccc3c2)NC(=O)[C@H](Cc2c[nH]cn2)NC(=O)[C@H](CCC(=O)O)NC1=O
EC50 (hMC5-R [1]): 95.7 nM | Ki (hMC3-R [6]; Ki hMC3-R, Table 6): 1.12 nM | Kb (hMC4-R): 9.45 nM | EC50 (hMC1-R [3]): 11.2 nM | Kb (hMC3-R [4]): 52.1 nM

CCCC[C@H](NC(C)=O)C(=O)N[C@H]1CC(=O)NCCCC[C@@H](C(N)=O)NC(=O)CCNC(=O)[C@H](Cc2c[nH]c3ccccc23)NC(=O)[C@H](CCCNC(=N)N)NC(=O)[C@@H](Cc2ccc3ccccc3c2)NC(=O)[C@H](Cc2c[nH]cn2)NC1=O [Ac-Nle-c(Asp-His-D-2-Nal-Arg-Trp-β-Ala-Lys)-NH2]
Ki (hMC1-R [2]; Table 5, read-out: Ki hMC1-R): 0.648 nM | EC50 (hMC1-R [3]; Table 9C/9D, read-out: EC50 hMC1-R): 0.913 nM

Source: patent US20120135923A1, “Use of Melanocortins to Treat Dyslipidemia” (IPSEN PHARMA, S.A.S., priority 2009, published 2012)
